PubChem BioAssay (NCI)
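GI50 marks 50% less growth. TGI denotes the concentration required for complete inhibition of growth.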

Legend:
Assay in all cases: NCI tumour cell line growth inhibition, 384-well format
[1] = test system: MOLT-4 leukemia
[2] = test system: BT-549 breast
[3] = test system: RXF 393 renal
[4] = test system: HCT-15 colon
[5] = test system: UO-31 renal
[6] = test system: UACC-62 melanoma
[7] = test system: CAKI-1 renal
[8] = test system: HCC-2998 colon
[9] = test system: PC-3 prostate
[10] = test system: SK-MEL-5 melanoma
[11] = test system: EKVX NSCLC
[12] = test system: HCT-116 colon
[13] = test system: KM12 colon
[14] = test system: LOX IMVI melanoma
[15] = test system: NCI-H322M lung
[16] = test system: COLO 205 colon
[17] = test system: DU-145 prostate
[18] = test system: NCI-H460 NSCLC
[19] = test system: CCRF-CEM leukemia
[20] = test system: HT29 colon
[21] = test system: MDA-MB-231 breast
[22] = test system: 786-0 renal
[23] = test system: SN12C renal
[24] = test system: SNB-19 CNS
[25] = test system: HOP-62 NSCLC
[26] = test system: T-47D breast
[27] = test system: OVCAR-4 ovarian
[28] = test system: OVCAR-5 ovarian
[29] = test system: TK-10 renal
[30] = test system: SK-MEL-28 melanoma
[31] = test system: NCI/ADR-RES ovarian
[32] = test system: UACC-257 melanoma
[33] = test system: A498 renal
[34] = test system: NCI-H226 lung
[35] = test system: MDA-MB-468 breast
[36] = test system: HOP-92 NSCLC
[37] = test system: M14 melanoma
[38] = test system: HS 578T breast
[39] = test system: U251 glioblastoma
[40] = test system: SF-295 CNS
[41] = test system: A549 NSCLC
[42] = test system: SNB-75 CNS
[43] = test system: SW-620 colon
[44] = test system: ACHN renal
[45] = test system: NCI-H23 lung
[46] = test system: SK-OV-3 ovarian
[47] = test system: SF-268 CNS
[48] = test system: SF-539 CNS
[49] = test system: HL-60(TB) leukemia
[50] = test system: MCF7 breast
[51] = test system: SK-MEL-2 melanoma
[52] = test system: NCI-H522 lung
[53] = test system: MALME-3M melanoma
[54] = test system: K-562 leukemia
[55] = test system: SR leukemia
[56] = test system: IGROV1 ovarian

With `Cc1cncc2cccc(S(=O)(=O)N3CCCNC[C@@H]3C)c12` as the compound, how does the GI50 [1] read?
Its GI50 is 0.492 µM.

And the TGI [1]?
The TGI was 1.65 µM.

What about the GI50 [2] of the same compound?
The GI50 was 1.8 µM.

What about the TGI [2] of the same compound?
Its TGI is 7.48 µM.

And the GI50 [3]?
Its GI50 is 5.06 µM.

And the TGI [3]?
The TGI was 22.6 µM.

What about the GI50 [4] of the same compound?
The GI50 was 11.2 µM.

And the TGI [4]?
The TGI was greater than 100 µM.

And the GI50 [5]?
The GI50 was 10.6 µM.

And the TGI [5]?
Its TGI is 24 µM.

What about the GI50 [6] of the same compound?
Its GI50 is 2.04 µM.

And the TGI [6]?
The TGI was 50.2 µM.

What about the GI50 [7] of the same compound?
Its GI50 is 7.51 µM.

What about the TGI [7] of the same compound?
Its TGI is 24.7 µM.

And the GI50 [8]?
Its GI50 is 42.4 µM.

And the TGI [8]?
Its TGI is greater than 100 µM.

What about the GI50 [9] of the same compound?
The GI50 was 8.81 µM.

And the TGI [9]?
Its TGI is greater than 100 µM.

What about the GI50 [10] of the same compound?
Its GI50 is 5.64 µM.

And the TGI [10]?
The TGI was greater than 100 µM.

What about the GI50 [11] of the same compound?
The GI50 was 16.3 µM.

And the TGI [11]?
The TGI was greater than 100 µM.

What about the GI50 [12] of the same compound?
Its GI50 is 7.52 µM.

What about the TGI [12] of the same compound?
The TGI was 48 µM.

And the GI50 [13]?
Its GI50 is 16.4 µM.

What about the TGI [13] of the same compound?
The TGI was 81.2 µM.

And the GI50 [14]?
The GI50 was 12.1 µM.

What about the TGI [14] of the same compound?
Its TGI is 31.8 µM.

What about the GI50 [15] of the same compound?
The GI50 was 87.7 µM.

What about the TGI [15] of the same compound?
The TGI was greater than 100 µM.

And the GI50 [16]?
The GI50 was 3.03 µM.

And the TGI [16]?
Its TGI is 11 µM.

What about the GI50 [17] of the same compound?
The GI50 was 5.94 µM.

What about the TGI [17] of the same compound?
The TGI was greater than 100 µM.

What about the GI50 [18] of the same compound?
The GI50 was 2.54 µM.

What about the TGI [18] of the same compound?
The TGI was 67.8 µM.

And the GI50 [19]?
The GI50 was 1.25 µM.

And the TGI [19]?
The TGI was 2.57 µM.

And the GI50 [20]?
The GI50 was 4.96 µM.

And the TGI [20]?
Its TGI is greater than 100 µM.

And the GI50 [21]?
The GI50 was 14.9 µM.

And the TGI [21]?
The TGI was 43.8 µM.

And the GI50 [22]?
Its GI50 is 13.6 µM.

What about the TGI [22] of the same compound?
Its TGI is greater than 100 µM.

And the GI50 [23]?
The GI50 was 15.1 µM.

And the TGI [23]?
Its TGI is 61.1 µM.

And the GI50 [24]?
Its GI50 is 8.41 µM.

What about the TGI [24] of the same compound?
The TGI was greater than 100 µM.

What about the GI50 [25] of the same compound?
Its GI50 is 11.3 µM.

What about the TGI [25] of the same compound?
Its TGI is 62.4 µM.

What about the GI50 [26] of the same compound?
Its GI50 is greater than 100 µM.

And the TGI [26]?
Its TGI is greater than 100 µM.

What about the GI50 [27] of the same compound?
Its GI50 is greater than 100 µM.

And the TGI [27]?
Its TGI is greater than 100 µM.

What about the GI50 [28] of the same compound?
Its GI50 is 25.5 µM.

And the TGI [28]?
The TGI was greater than 100 µM.

What about the GI50 [29] of the same compound?
Its GI50 is 10.1 µM.

And the TGI [29]?
The TGI was 37.3 µM.

And the GI50 [30]?
The GI50 was greater than 100 µM.

And the TGI [30]?
The TGI was greater than 100 µM.

What about the GI50 [31] of the same compound?
Its GI50 is 3.63 µM.

And the TGI [31]?
The TGI was greater than 100 µM.

What about the GI50 [32] of the same compound?
The GI50 was greater than 100 µM.

What about the TGI [32] of the same compound?
Its TGI is greater than 100 µM.

And the GI50 [33]?
Its GI50 is greater than 100 µM.

What about the TGI [33] of the same compound?
Its TGI is greater than 100 µM.

What about the GI50 [34] of the same compound?
The GI50 was 13.2 µM.

What about the TGI [34] of the same compound?
Its TGI is 68.2 µM.

What about the GI50 [35] of the same compound?
Its GI50 is 1.02 µM.

And the TGI [35]?
The TGI was 2.28 µM.

And the GI50 [36]?
The GI50 was 10.3 µM.

What about the TGI [36] of the same compound?
The TGI was 36.1 µM.

And the GI50 [37]?
Its GI50 is greater than 100 µM.

What about the TGI [37] of the same compound?
Its TGI is greater than 100 µM.

What about the GI50 [38] of the same compound?
Its GI50 is 1.89 µM.

And the TGI [38]?
The TGI was 4.55 µM.

What about the GI50 [39] of the same compound?
Its GI50 is 5.17 µM.

And the TGI [39]?
Its TGI is greater than 100 µM.

And the GI50 [40]?
The GI50 was 4.35 µM.

What about the TGI [40] of the same compound?
Its TGI is greater than 100 µM.

And the GI50 [41]?
The GI50 was 11.2 µM.

What about the TGI [41] of the same compound?
Its TGI is 49.4 µM.

And the GI50 [42]?
The GI50 was 1.66 µM.

And the TGI [42]?
Its TGI is 10 µM.

What about the GI50 [43] of the same compound?
The GI50 was 2.74 µM.

And the TGI [43]?
The TGI was 10.7 µM.

What about the GI50 [44] of the same compound?
Its GI50 is 25.9 µM.

What about the TGI [44] of the same compound?
The TGI was greater than 100 µM.

What about the GI50 [45] of the same compound?
Its GI50 is 10.8 µM.

What about the TGI [45] of the same compound?
Its TGI is 52 µM.

And the GI50 [46]?
Its GI50 is 18.5 µM.

And the TGI [46]?
Its TGI is greater than 100 µM.

What about the GI50 [47] of the same compound?
Its GI50 is 11.7 µM.

And the TGI [47]?
The TGI was 87.3 µM.

What about the GI50 [48] of the same compound?
The GI50 was 4.32 µM.

And the TGI [48]?
Its TGI is 20.1 µM.

What about the GI50 [49] of the same compound?
The GI50 was 1.49 µM.

And the TGI [49]?
The TGI was 3.09 µM.

What about the GI50 [50] of the same compound?
Its GI50 is 28 µM.

And the TGI [50]?
Its TGI is greater than 100 µM.

What about the GI50 [51] of the same compound?
The GI50 was 7.56 µM.

What about the TGI [51] of the same compound?
Its TGI is 42.4 µM.

And the GI50 [52]?
The GI50 was 1.71 µM.

And the TGI [52]?
The TGI was 5.04 µM.

And the GI50 [53]?
The GI50 was greater than 100 µM.

What about the TGI [53] of the same compound?
Its TGI is greater than 100 µM.

What about the GI50 [54] of the same compound?
The GI50 was 0.537 µM.

And the TGI [54]?
Its TGI is greater than 100 µM.

And the GI50 [55]?
The GI50 was 0.227 µM.

What about the TGI [55] of the same compound?
The TGI was 0.389 µM.

And the GI50 [56]?
Its GI50 is 7.65 µM.

What about the TGI [56] of the same compound?
The TGI was 58.1 µM.
